The values that follow come from publication PMC7506137, “Selective Phosphodiesterase 1 Inhibitor BTTQ Reduces Blood Pressure in Spontaneously Hypertensive and Dahl Salt Sensitive Rats: Role of Peripheral Vasodilation” (Frontiers in Physiology, 2020).

Data set [1] is described as follows: Rat PK parameters (IV and oral). Type of data set: in vivo.
Another data set has as its system PDE1. The data set is described as follows: Calculated target engagement from unbound drug concentration. Type of data set: in vivo, Rat. To be noted: for % TE: 1 h, hill slope 1.
Data set [2] can be described thus: Fraction unbound in rat plasma. Type of data set: in vitro ADME. The note with it: read-out: FU Value (FU Plasma Exp Rat). The source says: Supplement Table_2.xlsx, sheet "Supplementary table 2"
Another data set deals with T1, Human PDE1C (Homo sapiens, UniProt Q14123).
T1 construct: made in house; host or cells: baculovirus-infected insect cells
The data set is described as follows: PDE scintillation proximity enzyme assay. Type of data set: biochemical. The note with it: geometric mean (SD, n). The method, then: (§1) All PDE proteins were expressed in baculoviral infected insect cells using standard methods [pFastBac, pFastBac Dual (Invitrogen), pIEX4 (Novagen)]. See Supplementary Table 1 for DNA sequences, construct boundaries, affinity tags, and expression vectors. HIS6 tagged PDE proteins were purified using Ni-NTA agarose (Qiagen) followed by size exclusion chromatography on a Superdex 200 column (GE Healthcare) in storage buffer (20 mM Tris-HCl, pH 7.5, 150 mM NaCl, 10% Glycerol). FLAG-tagged PDE proteins including the PDE6A/6B heterodimer were purified using anti-FLAG M2-agarose (Sigma-Aldrich), after purification through NiNTA column chromatography and eluted in storage buffer (50 mM Tris-HCl, pH 7.5, 150 mM NaCl, 10% Glycerol, 0.1 mg/ml Flag peptide). All purified proteins were stored at −80°C in small aliquots.
(§2) All PDE enzyme activities were measured with a yittrium silicate based scintillation proximity assay that detects radioactive nucleotide monophosphates but not cyclic monophosphates. Assays are conducted in a total volume of 50 μl in 384 well plates (3706, Corning): comprised of 24 μl enzyme, 1 μl compound, and 25 μl of cyclic nucleotide. The general assay buffer consists of 50 mM Tris-HCl (pH 7.5) and 0.1% (w/v) bovine serum albumin (Fatty Acid Free, Sigma-Aldrich). Enzyme concentrations, substrate concentrations, and various PDE-specific buffer additives are described in Supplementary Table 1. Compounds to be tested are diluted in pure dimethyl sulfoxide (DMSO) using 10-point concentration-response curves, and 1 μl is acoustically dispensed into assay plates using the Echo555 (LabCyte). Maximal compound concentration in the reaction mixture is either 10 or 100 μM. Compounds at the appropriate concentration are pre-incubated with either of the PDE enzymes for 30 min before the reaction is started by the addition of substrate ([8-^3H]-cAMP, 20.7 Ci/mmol or [8-^3H]-cGMP; 6.5 Ci/mmol, Perkin Elmer). Reactions are allowed to proceed for 60 min at room temperature before quenching. Next, reactions are stopped by the addition of 400 μg/per well SPA beads (RPNQ0150, Perkin Elmer) and a potent non-selective PDE inhibitor to quench the reaction. Bead bound radioactivity (product) is quantified 12 h later a Microbeta counter (Perkin Elmer). Data is normalized to % inhibition using standard methods ([Campbell et al., 2004]), and IC50 values were plotted using PRISM (GraphPad Software) using the 4 parameter logistic equation ([Campbell et al., 2004]). Data for potency values are expressed as the geometric mean and arithmetic standard deviation.

For the next data set, the target named is T2, Human PDE7B (Homo sapiens, UniProt Q9NP56).
T2 construct: made in house; host or cells: baculovirus-infected insect cells
The data set is described as follows: PDE scintillation proximity enzyme assay. Type of data set: biochemical. To be noted: geometric mean (SD, n). The method, then:
as §1, §2
In general terms: SPA uses beads or plates that emit light when radiolabelled molecules are held near them.

In another data set the target is T3, Human PDE1B (Homo sapiens, UniProt Q01064).
T3 construct: made in house; host or cells: baculovirus-infected insect cells
As to the kind of experiment: PDE scintillation proximity enzyme assay. Type of data set: biochemical. The note with it: geometric mean (SD, n). The procedure: as §1, §2

The target in the next data set is T4, Human PDE11A (Homo sapiens, UniProt Q9HCR9).
T4 construct: made in house; host or cells: baculovirus-infected insect cells
As to the kind of experiment: PDE scintillation proximity enzyme assay. Type of data set: biochemical. The note with it: geometric mean (SD, n). The method, then:
as §1, §2

Another data set has as its target T5, Human PDE4D (Homo sapiens, UniProt Q08499).
T5 construct: made in house; host or cells: baculovirus-infected insect cells
The data set is described as follows: PDE scintillation proximity enzyme assay. Type of data set: biochemical. The note with it: geometric mean (SD, n). The method, then:
as §1, §2

Another data set deals with T6, Human PDE1A (Homo sapiens, UniProt P54750).
T6 construct: made in house; host or cells: baculovirus-infected insect cells
The data set is described as follows: PDE scintillation proximity enzyme assay. Type of data set: biochemical. To be noted: geometric mean (SD, n). The method, then: as §1, §2

Where “and” joins values, the source holds several entries; their conditions need not be identical. Equal values may be shown once.

T3 sequence (Q01064 whole entry): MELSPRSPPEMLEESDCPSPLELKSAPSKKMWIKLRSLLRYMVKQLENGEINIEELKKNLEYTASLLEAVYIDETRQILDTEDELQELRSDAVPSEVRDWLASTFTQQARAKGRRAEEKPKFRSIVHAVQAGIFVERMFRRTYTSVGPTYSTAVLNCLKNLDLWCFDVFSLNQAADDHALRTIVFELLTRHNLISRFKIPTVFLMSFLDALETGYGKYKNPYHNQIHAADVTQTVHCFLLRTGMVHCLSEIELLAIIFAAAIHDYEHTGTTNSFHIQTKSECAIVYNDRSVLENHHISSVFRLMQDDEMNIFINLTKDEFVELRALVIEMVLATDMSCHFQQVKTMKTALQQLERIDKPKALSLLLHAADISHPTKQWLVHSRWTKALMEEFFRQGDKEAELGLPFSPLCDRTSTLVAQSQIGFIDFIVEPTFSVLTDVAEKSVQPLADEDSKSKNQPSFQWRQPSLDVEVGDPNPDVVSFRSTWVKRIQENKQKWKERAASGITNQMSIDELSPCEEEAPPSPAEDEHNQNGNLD
T6 sequence (P54750 whole entry): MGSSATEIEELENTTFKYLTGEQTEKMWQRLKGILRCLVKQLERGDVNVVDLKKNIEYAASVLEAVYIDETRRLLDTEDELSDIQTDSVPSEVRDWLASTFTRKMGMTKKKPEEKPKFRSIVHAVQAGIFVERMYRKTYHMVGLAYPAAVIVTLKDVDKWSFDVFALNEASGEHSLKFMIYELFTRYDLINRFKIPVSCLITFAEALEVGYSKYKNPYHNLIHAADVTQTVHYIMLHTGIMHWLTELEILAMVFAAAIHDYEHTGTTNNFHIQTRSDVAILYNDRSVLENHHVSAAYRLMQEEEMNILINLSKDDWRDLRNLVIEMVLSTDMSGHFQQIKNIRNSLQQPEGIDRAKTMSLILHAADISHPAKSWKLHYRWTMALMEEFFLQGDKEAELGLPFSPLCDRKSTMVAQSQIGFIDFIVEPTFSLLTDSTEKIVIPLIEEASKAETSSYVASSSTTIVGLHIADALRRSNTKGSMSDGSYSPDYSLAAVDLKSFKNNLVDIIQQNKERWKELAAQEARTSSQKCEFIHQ
T2 sequence (Q9NP56 whole entry): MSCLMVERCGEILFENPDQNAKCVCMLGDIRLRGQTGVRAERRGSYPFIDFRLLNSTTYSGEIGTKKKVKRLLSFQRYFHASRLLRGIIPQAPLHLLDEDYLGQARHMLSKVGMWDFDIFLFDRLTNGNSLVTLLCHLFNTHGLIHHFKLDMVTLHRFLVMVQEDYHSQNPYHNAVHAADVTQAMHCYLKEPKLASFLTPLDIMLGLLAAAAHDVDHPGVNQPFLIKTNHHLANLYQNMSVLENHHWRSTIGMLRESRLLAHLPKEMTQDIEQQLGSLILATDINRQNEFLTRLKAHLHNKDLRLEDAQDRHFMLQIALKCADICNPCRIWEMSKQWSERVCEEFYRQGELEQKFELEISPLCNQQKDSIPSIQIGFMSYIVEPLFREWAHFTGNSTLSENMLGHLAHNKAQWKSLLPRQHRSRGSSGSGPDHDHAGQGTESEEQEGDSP
T5 sequence (Q08499 whole entry): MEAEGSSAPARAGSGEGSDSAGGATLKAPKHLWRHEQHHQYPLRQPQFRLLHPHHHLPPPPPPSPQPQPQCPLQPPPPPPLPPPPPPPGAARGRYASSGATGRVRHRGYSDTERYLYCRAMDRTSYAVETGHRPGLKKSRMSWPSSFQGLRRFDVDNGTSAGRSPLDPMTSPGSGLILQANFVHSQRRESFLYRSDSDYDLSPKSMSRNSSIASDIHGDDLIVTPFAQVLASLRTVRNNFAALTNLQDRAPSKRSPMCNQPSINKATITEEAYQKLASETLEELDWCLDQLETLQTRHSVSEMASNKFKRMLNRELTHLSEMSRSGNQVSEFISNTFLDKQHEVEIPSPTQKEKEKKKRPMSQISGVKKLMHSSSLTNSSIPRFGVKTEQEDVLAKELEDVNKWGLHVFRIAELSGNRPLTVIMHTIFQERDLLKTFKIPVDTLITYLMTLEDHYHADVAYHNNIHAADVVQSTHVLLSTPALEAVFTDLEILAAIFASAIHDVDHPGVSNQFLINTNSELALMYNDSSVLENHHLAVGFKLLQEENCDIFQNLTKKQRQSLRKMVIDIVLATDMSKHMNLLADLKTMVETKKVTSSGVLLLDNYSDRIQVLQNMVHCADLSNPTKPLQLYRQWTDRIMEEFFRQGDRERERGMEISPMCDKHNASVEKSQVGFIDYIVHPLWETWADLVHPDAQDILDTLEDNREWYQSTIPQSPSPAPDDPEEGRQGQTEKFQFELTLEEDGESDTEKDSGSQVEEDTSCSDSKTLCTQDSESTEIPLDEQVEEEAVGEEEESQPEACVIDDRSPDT
T1 sequence (Q14123 whole entry): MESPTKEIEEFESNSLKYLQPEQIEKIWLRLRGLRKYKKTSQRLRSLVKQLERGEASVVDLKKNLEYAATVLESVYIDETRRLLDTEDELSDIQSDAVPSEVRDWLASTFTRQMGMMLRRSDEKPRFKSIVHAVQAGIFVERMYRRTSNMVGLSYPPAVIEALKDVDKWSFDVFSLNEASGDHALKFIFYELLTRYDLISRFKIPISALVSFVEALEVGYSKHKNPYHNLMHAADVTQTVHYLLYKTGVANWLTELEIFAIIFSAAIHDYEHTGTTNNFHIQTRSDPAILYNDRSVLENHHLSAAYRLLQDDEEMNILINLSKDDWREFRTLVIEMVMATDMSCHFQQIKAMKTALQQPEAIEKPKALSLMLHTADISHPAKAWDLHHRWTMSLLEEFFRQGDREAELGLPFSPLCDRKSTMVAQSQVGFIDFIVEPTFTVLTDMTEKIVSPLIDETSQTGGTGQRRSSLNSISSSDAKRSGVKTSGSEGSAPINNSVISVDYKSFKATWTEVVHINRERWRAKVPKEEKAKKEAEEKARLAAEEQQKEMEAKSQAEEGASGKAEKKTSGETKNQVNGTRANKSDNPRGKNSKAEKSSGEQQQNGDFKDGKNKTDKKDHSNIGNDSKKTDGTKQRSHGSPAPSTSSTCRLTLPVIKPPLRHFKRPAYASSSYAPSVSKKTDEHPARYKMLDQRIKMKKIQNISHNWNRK
T4 sequence (Q9HCR9 whole entry): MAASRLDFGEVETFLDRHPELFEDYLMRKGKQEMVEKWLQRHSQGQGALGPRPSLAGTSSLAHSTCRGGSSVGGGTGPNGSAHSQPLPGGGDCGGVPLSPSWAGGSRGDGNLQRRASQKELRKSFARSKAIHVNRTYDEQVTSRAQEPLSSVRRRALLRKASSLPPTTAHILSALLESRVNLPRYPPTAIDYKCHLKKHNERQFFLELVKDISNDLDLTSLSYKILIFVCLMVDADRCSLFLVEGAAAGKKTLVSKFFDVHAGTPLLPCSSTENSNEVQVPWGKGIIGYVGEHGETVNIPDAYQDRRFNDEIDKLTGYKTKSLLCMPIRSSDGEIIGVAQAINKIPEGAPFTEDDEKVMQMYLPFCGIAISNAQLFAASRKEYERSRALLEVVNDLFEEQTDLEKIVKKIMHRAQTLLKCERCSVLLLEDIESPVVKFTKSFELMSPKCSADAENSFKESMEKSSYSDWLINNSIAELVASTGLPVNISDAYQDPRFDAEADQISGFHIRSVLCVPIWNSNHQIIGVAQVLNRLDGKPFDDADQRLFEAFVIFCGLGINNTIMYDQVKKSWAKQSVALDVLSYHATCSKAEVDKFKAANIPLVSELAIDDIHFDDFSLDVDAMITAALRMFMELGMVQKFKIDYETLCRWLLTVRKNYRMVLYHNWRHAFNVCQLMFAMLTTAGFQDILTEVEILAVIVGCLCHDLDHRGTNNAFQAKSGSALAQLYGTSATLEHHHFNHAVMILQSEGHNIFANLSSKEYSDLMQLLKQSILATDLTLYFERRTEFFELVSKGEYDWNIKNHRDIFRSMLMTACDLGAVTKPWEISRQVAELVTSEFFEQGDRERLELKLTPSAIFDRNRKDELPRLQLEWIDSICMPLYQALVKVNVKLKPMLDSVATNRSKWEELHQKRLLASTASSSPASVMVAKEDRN

Take `O=c1c2nnc(C3(C4CC4)CC3)n2c2c(n1CC1CC1)CCCC2` [BTTQ, 1-[1,1′-bi(cyclopropyl)-1-yl]-5-(cyclopropylmethyl)-6,7,8,9-tetrahydro[1,2,4]triazolo[4,3-A]quinoxaline-4(5H)-one]: the “% of dose recovered in urine” value in data set [1] was 0.4%. In [1] (in vivo, 1 mg/kg, IV 1 mpk, mean ± SD, 3 animals), the clearance is 3.2 ± 0.6 mL/min/kg. Moreover, the Vd in data set [1] (in vivo, 1 mg/kg, IV 1 mpk, mean ± SD, 3 animals, read-out: IV Vdss) was 0.6 ± 0.04 L/kg. In [1] (in vivo, 1 mg/kg, IV 1 mpk, mean ± SD, 3 animals, read-out: IV t1/2 (converted)), the half-life was 2.7 ± 0.5 h. In data set [1] (in vivo, IV 1 mpk and oral 10 mpk, mean ± SD, 3 animals), this molecule returned a bioavailability of 58 ± 20%. For the same molecule, the IC50 in the data set on PDE1 (IC50 used for the target engagement calculation) is 1.37 nM; on Human PDE1C, 0.14 nM; on Human PDE7B, 1600 nM; against Human PDE1B, 0.5 nM and 0.45 nM; at Human PDE11A, 2400 nM; against Human PDE4D, 12000 nM. The IC50 against Human PDE1A was 1 nM. Further, the “% TE” value in the data set with PDE1 (dose 0.1 (mg/kg oral)) is reported as 88.55%; with PDE1 (dose 0.3 (mg/kg oral)), 95.29%; with PDE1 (dose 1 (mg/kg oral)) it was 98.54%; in the data set on PDE1 (dose 3 (mg/kg oral)) it was 99.31%. Moreover, in data set [2], the fraction unbound was determined as 0.053.

Broadly, the bioavailability is dose-corrected exposure relative to a reference, in per cent. For orientation: IC50 means the concentration needed to halve the response being measured.
